Test results from US8933195B2, “Histone deacetylase inhibitors and synthetic method thereof and use thereof in manufacture of medicaments” (Nanjing Yoko Biomedical R & D Ltd., priority 2011, dated 2015).

What was measured:
HDAC1 = HDAC1 (Homo sapiens, UniProt Q13547); assay: Measurement of biochemical activities of HDAC (fluorescently-labeled acetylated lysine substrate); settings: read-out: IC50 HDAC1
Outline: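 For both HDAC isoforms, fluorescent acetyl-lysine substrate ([…] in reaction) incubated with enzyme and compounds for 30 min at 37; developer then added for 15 min at room temperature. Fluorescence read at excitation 360 nm, emission 460 nm.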

[1] = tested on: DU145 (human prostate cancer cells); assay: MTT cancer cell growth inhibition; format: cell-based; settings: DU-145, 72 h
Outline: (§1)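 Following overnight seeding (1500 cells per well, medium with 10% FBS), cultures get triplicate compound doses of 10^−5–10^−10 M final for 72 h at 37 °C; 0.1% DMSO serves as negative control. MTT is then applied for 4 h, crystals dissolved in DMSO, and optical density at 570 nm converted to survival rate.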

[2] = tested on: MOLT-4 (human acute lymphoblastic leukemia cells); assay: MTT cancer cell growth inhibition; format: cell-based; settings: 72 h
Outline: as §1

[3] = tested on: human colon cancer HCT-116; assay: Subcutaneously transplanted tumors in nude mice; format: in vivo, BALB/cA nude mice; set-up: key to RTV (mean ± SD): RTV = Vt/V0, tumor volume at time t over volume at d0; settings: for 1-T/C tumor inhibition rate: after three weeks; for RTV (mean ± SD) / TV (mean ± SD) d21: d21
Procedure: The solvents are isopropanol and anhydrous ethanol (mixed in the volume ratio of 1:1). The test sample is dissolved with solvents and physiological saline in the ratio of 1:1 for use, and the above solvents and physiological saline are dissolved in the ratio of 1:1 as a negative control.
The number of mice in each group: 12 mice in the negative control group, and 6 mice in the administration group.
The cell strains are inoculated to the right axilla subcutaneous layer of the nude mice, with 5×10^6 per mouse. After formed, the transplanted tumors are passed down two generations in the nude mice and then used.
(§2) Tumor tissues in the vigorous growth period are cut into about 1.5 mm^3, and inoculated to the right axilla subcutaneous layer of the nude mice under aseptic conditions. For the subcutaneously transplanted tumors of the nude mice, the diameter of the transplanted tumors is measured by a vernier caliper. The mice are randomly grouped after the tumors grow to 100-200 mm^3. […] The diameter of the transplanted tumors is measured twice per week in the whole experimental process, and meanwhile the weight of the mice is weighed. The calculation formula of tumor volume (TV) is TV=½×a×b^2, where a and b represent length and width, respectively.
(§3) The relative tumor volume (RTV) is calculated according to the measured results, with the following calculation formula: RTV=Vt/V0, where V0 is the tumor volume obtained by measurement during administration in different cages (i.e., d0), Vt is the tumor volume obtained by measurement at each time. […] (Wc−WT)Wc×100%, where Wc is the tumor weight of the control group, and WT is the tumor weight of the treatment group.

[4] = tested on: Human Blood Acute Monocytic Leukemia U937; assay: Subcutaneously transplanted tumors in nude mice; format: in vivo; settings: 20 mg/kg
Procedure: as §2, §3

[5] = tested on: Human Gastric Adenocarcinoma Cell BGC-823; assay: Subcutaneously transplanted tumors in nude mice; format: in vivo; settings: 20 mg/kg
Procedure: as §2, §3

[6] = tested on: Human Lung Caner Cell NCI-H1975; assay: Subcutaneously transplanted tumors in nude mice; format: in vivo; settings: 20 mg/kg
Procedure: as §2, §3

[7] = tested on: Human Lymphoma Cell Ramos; assay: Subcutaneously transplanted tumors in nude mice; format: in vivo; settings: 20 mg/kg
Procedure: as §2, §3

Human Melanoma Cell A875 = assay: Subcutaneously transplanted tumors in nude mice; format: in vivo; settings: 20 mg/kg
Procedure: as §2, §3

[8] = Table 2.1, 20 mg/kg q3d × 3w iv
[9] = Table 1.1, 10 mg/kg q3d × 3w iv
[10] = Table 1.1, 20 mg/kg q3d × 3w iv

Sequence of HDAC1 (Q13547 whole entry, species assumed, canonical isoform): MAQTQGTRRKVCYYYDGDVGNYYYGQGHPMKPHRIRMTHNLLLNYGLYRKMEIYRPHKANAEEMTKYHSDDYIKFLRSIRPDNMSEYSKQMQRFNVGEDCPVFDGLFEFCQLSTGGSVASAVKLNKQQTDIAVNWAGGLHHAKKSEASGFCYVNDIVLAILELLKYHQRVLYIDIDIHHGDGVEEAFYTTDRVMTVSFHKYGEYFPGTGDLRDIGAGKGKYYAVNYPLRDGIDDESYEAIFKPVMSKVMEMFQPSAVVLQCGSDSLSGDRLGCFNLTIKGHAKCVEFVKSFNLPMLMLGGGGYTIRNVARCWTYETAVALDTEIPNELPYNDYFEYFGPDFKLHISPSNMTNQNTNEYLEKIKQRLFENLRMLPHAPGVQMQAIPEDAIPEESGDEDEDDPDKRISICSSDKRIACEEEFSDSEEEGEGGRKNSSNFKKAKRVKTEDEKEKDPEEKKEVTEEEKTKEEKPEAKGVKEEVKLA

C/C=C1\NC(=O)c2csc(n2)CNC(=O)C[C@@H](/C=C/CCSC(=O)CCCCCCC)OC(=O)[C@H](Cc2ccc(O)cc2)NC1=O [Compound 1-8]
IC50 (HDAC1): < 102 nM | GI50 [1]: 30 nM | GI50 [2]: 20 nM | 1-T/C tumor inhibition rate [3, 8]: 69.49% | TV (mean ± SD) d0 [3, 8]: 116 ± 22 mm^3 | Weight d0 [3, 8]: 16.1 g | RTV (mean ± SD) [3, 8]: 3.17 ± 2.08 | TV (mean ± SD) d21 [3, 8]: 368 ± 241 mm^3 | Tumor Volume TV (mean ± SD) d 0 ([3]; Table 2.2, 20 mg/kg): 118 ± 22 mm^3 | Tumor Volume TV (mean ± SD) d 3 ([3]; Table 2.2, 20 mg/kg): 139 ± 15 mm^3 | Tumor Volume TV (mean ± SD) d 7 ([3]; Table 2.2, 20 mg/kg): 165 ± 28 mm^3 | Tumor Volume TV (mean ± SD) d 10 ([3]; Table 2.2, 20 mg/kg): 203 ± 69 mm^3 | Tumor Volume TV (mean ± SD) d 14 ([3]; Table 2.2, 20 mg/kg): 265 ± 127 mm^3 | Tumor Volume TV (mean ± SD) d 17 ([3]; Table 2.2, 20 mg/kg): 305 ± 142 mm^3 | Weight (mean ± SD) d 0 ([3]; Table 2.3, 20 mg/kg): 16.3 ± 1.0 g | Weight (mean ± SD) d 3 ([3]; Table 2.3, 20 mg/kg): 15.8 ± 1.1 g | Weight (mean ± SD) d 7 ([3]; Table 2.3, 20 mg/kg): 15.1 ± 0.9 g | Weight (mean ± SD) d 10 ([3]; Table 2.3, 20 mg/kg): 14.5 ± 1.2 g | Weight (mean ± SD) d 14 ([3]; Table 2.3, 20 mg/kg): 14.0 ± 1.0 g | Weight (mean ± SD) d 17 ([3]; Table 2.3, 20 mg/kg): 13.5 ± 0.9 g | Weight (mean ± SD) d 21 ([3]; Table 2.3, 20 mg/kg): 12.9 ± 0.9 g | Tumor Inhibition Rate (1 − T/C) × 100% [4]: 68.32% | Tumor Inhibition Rate (1 − T/C) × 100% [5]: 56.83% | Tumor Inhibition Rate (1 − T/C) × 100% [6]: 53.23% | Tumor Inhibition Rate (1 − T/C) × 100% [7]: 58.33% | Tumor Inhibition Rate (1 − T/C) × 100% (Human Melanoma Cell A875): 68.07%

C/C=C1\NC(=O)c2csc(n2)CNC(=O)C[C@@H](/C=C/CCSC(=O)CCCCCCC)OC(=O)[C@H](C(C)C)NC1=O [Compound 1-3]
IC50 (HDAC1): < 10000 nM | GI50 [1]: 300 nM | GI50 [2]: 1000 nM | 1-T/C tumor inhibition rate ([3]; Table 1.1, 5 mg/kg q3d × 3w iv): 7.92% | TV (mean ± SD) d0 ([3]; Table 1.1, 5 mg/kg q3d × 3w iv): 122 ± 25 mm^3 | Weight d0 ([3]; Table 1.1, 5 mg/kg q3d × 3w iv): 16.7 g | RTV (mean ± SD) ([3]; Table 1.1, 5 mg/kg q3d × 3w iv): 9.56 ± 2.44 | TV (mean ± SD) d21 ([3]; Table 1.1, 5 mg/kg q3d × 3w iv): 1166 ± 201 mm^3 | 1-T/C tumor inhibition rate [3, 9]: 39.71% | TV (mean ± SD) d0 [3, 9]: 120 ± 19 mm^3 | Weight d0 [3, 9]: 17.5 g | RTV (mean ± SD) [3, 9]: 6.26 ± 3.33 | TV (mean ± SD) d21 [3, 9]: 751 ± 244 mm^3 | 1-T/C tumor inhibition rate [3, 10]: 70.26% | TV (mean ± SD) d0 [3, 10]: 116 ± 26 mm^3 | Weight d0 [3, 10]: 16.7 g | RTV (mean ± SD) [3, 10]: 3.09 ± 3.14 | TV (mean ± SD) d21 [3, 10]: 358 ± 201 mm^3 | Tumor Volume TV (mean ± SD) d 0 ([3]; Table 1.2, 5 mg/kg): 122 ± 25 mm^3 | Tumor Volume TV (mean ± SD) d 3 ([3]; Table 1.2, 5 mg/kg): 179 ± 15 mm^3 | Tumor Volume TV (mean ± SD) d 7 ([3]; Table 1.2, 5 mg/kg): 343 ± 58 mm^3 | Tumor Volume TV (mean ± SD) d 10 ([3]; Table 1.2, 5 mg/kg): 454 ± 41 mm^3 | Tumor Volume TV (mean ± SD) d 14 ([3]; Table 1.2, 5 mg/kg): 605 ± 60 mm^3 | Tumor Volume TV (mean ± SD) d 17 ([3]; Table 1.2, 5 mg/kg): 895 ± 138 mm^3 | Tumor Volume TV (mean ± SD) d 0 ([3]; Table 1.2, 10 mg/kg): 120 ± 19 mm^3 | Tumor Volume TV (mean ± SD) d 3 ([3]; Table 1.2, 10 mg/kg): 163 ± 38 mm^3 | Tumor Volume TV (mean ± SD) d 7 ([3]; Table 1.2, 10 mg/kg): 217 ± 67 mm^3 | Tumor Volume TV (mean ± SD) d 10 ([3]; Table 1.2, 10 mg/kg): 302 ± 105 mm^3 | Tumor Volume TV (mean ± SD) d 14 ([3]; Table 1.2, 10 mg/kg): 408 ± 70 mm^3 | Tumor Volume TV (mean ± SD) d 17 ([3]; Table 1.2, 10 mg/kg): 571 ± 175 mm^3 | Tumor Volume TV (mean ± SD) d 0 ([3]; Table 1.2, 20 mg/kg): 116 ± 26 mm^3 | Tumor Volume TV (mean ± SD) d 3 ([3]; Table 1.2, 20 mg/kg): 129 ± 10 mm^3 | Tumor Volume TV (mean ± SD) d 7 ([3]; Table 1.2, 20 mg/kg): 155 ± 28 mm^3 | Tumor Volume TV (mean ± SD) d 10 ([3]; Table 1.2, 20 mg/kg): 193 ± 68 mm^3 | Tumor Volume TV (mean ± SD) d 14 ([3]; Table 1.2, 20 mg/kg): 245 ± 117 mm^3 | Tumor Volume TV (mean ± SD) d 17 ([3]; Table 1.2, 20 mg/kg): 275 ± 112 mm^3 | Weight (mean ± SD) d 0 ([3]; Table 1.3, 5 mg/kg): 16.7 ± 0.6 g | Weight (mean ± SD) d 3 ([3]; Table 1.3, 5 mg/kg): 15.9 ± 0.7 g | Weight (mean ± SD) d 7 ([3]; Table 1.3, 5 mg/kg): 15.0 ± 0.9 g | Weight (mean ± SD) d 10 ([3]; Table 1.3, 5 mg/kg): 14.5 ± 1.2 g | Weight (mean ± SD) d 14 ([3]; Table 1.3, 5 mg/kg): 14.1 ± 1.0 g | Weight (mean ± SD) d 17 ([3]; Table 1.3, 5 mg/kg): 13.5 ± 0.9 g | Weight (mean ± SD) d 21 ([3]; Table 1.3, 5 mg/kg): 13.3 ± 1.0 g | Weight (mean ± SD) d 0 ([3]; Table 1.3, 10 mg/kg): 17.5 ± 1.6 g | Weight (mean ± SD) d 3 ([3]; Table 1.3, 10 mg/kg): 16.6 ± 1.9 g | Weight (mean ± SD) d 7 ([3]; Table 1.3, 10 mg/kg): 15.8 ± 2.0 g | Weight (mean ± SD) d 10 ([3]; Table 1.3, 10 mg/kg): 15.7 ± 2.0 g | Weight (mean ± SD) d 14 ([3]; Table 1.3, 10 mg/kg): 14.8 ± 1.8 g | Weight (mean ± SD) d 17 ([3]; Table 1.3, 10 mg/kg): 14.2 ± 1.7 g | Weight (mean ± SD) d 21 ([3]; Table 1.3, 10 mg/kg): 13.5 ± 1.6 g | Weight (mean ± SD) d 0 ([3]; Table 1.3, 20 mg/kg): 16.7 ± 0.5 g | Weight (mean ± SD) d 3 ([3]; Table 1.3, 20 mg/kg): 16.1 ± 0.4 g | Weight (mean ± SD) d 7 ([3]; Table 1.3, 20 mg/kg): 14.6 ± 0.4 g | Weight (mean ± SD) d 10 ([3]; Table 1.3, 20 mg/kg): 14.7 ± 0.4 g | Weight (mean ± SD) d 14 ([3]; Table 1.3, 20 mg/kg): 13.7 ± 0.3 g | Weight (mean ± SD) d 17 ([3]; Table 1.3, 20 mg/kg): 13.0 ± 0.3 g | Weight (mean ± SD) d 21 ([3]; Table 1.3, 20 mg/kg): 13.1 ± 0.6 g | Tumor Inhibition Rate (1 − T/C) × 100% [4]: 65.21% | Tumor Inhibition Rate (1 − T/C) × 100% [5]: 59.38% | Tumor Inhibition Rate (1 − T/C) × 100% [6]: 56.40% | Tumor Inhibition Rate (1 − T/C) × 100% [7]: 70.08% | Tumor Inhibition Rate (1 − T/C) × 100% (Human Melanoma Cell A875): 63.89%
